Assay results from ChEMBL document CHEMBL3217594, “Structureactivity relationships of methyl-lysine reader antagonists” (Medchemcomm, 2012).
Calls of active or inactive are those of the source. The rule behind the calls is not given here.

Experiments:
[1] = molecular target: TP53-binding protein 1 (Homo sapiens) (UniProt Q12888); test: Effect on GST-fused 53BP1 Tudor domain (unknown origin)/biotinylated H4K20Me1 peptide interaction assessed as binding of 53BP1 to H4K20Me1 at 25 uM by pull down assay based western blot analysis
Sequence of TP53-binding protein 1 (Homo sapiens) (Q12888 whole entry, the tested form may be a part): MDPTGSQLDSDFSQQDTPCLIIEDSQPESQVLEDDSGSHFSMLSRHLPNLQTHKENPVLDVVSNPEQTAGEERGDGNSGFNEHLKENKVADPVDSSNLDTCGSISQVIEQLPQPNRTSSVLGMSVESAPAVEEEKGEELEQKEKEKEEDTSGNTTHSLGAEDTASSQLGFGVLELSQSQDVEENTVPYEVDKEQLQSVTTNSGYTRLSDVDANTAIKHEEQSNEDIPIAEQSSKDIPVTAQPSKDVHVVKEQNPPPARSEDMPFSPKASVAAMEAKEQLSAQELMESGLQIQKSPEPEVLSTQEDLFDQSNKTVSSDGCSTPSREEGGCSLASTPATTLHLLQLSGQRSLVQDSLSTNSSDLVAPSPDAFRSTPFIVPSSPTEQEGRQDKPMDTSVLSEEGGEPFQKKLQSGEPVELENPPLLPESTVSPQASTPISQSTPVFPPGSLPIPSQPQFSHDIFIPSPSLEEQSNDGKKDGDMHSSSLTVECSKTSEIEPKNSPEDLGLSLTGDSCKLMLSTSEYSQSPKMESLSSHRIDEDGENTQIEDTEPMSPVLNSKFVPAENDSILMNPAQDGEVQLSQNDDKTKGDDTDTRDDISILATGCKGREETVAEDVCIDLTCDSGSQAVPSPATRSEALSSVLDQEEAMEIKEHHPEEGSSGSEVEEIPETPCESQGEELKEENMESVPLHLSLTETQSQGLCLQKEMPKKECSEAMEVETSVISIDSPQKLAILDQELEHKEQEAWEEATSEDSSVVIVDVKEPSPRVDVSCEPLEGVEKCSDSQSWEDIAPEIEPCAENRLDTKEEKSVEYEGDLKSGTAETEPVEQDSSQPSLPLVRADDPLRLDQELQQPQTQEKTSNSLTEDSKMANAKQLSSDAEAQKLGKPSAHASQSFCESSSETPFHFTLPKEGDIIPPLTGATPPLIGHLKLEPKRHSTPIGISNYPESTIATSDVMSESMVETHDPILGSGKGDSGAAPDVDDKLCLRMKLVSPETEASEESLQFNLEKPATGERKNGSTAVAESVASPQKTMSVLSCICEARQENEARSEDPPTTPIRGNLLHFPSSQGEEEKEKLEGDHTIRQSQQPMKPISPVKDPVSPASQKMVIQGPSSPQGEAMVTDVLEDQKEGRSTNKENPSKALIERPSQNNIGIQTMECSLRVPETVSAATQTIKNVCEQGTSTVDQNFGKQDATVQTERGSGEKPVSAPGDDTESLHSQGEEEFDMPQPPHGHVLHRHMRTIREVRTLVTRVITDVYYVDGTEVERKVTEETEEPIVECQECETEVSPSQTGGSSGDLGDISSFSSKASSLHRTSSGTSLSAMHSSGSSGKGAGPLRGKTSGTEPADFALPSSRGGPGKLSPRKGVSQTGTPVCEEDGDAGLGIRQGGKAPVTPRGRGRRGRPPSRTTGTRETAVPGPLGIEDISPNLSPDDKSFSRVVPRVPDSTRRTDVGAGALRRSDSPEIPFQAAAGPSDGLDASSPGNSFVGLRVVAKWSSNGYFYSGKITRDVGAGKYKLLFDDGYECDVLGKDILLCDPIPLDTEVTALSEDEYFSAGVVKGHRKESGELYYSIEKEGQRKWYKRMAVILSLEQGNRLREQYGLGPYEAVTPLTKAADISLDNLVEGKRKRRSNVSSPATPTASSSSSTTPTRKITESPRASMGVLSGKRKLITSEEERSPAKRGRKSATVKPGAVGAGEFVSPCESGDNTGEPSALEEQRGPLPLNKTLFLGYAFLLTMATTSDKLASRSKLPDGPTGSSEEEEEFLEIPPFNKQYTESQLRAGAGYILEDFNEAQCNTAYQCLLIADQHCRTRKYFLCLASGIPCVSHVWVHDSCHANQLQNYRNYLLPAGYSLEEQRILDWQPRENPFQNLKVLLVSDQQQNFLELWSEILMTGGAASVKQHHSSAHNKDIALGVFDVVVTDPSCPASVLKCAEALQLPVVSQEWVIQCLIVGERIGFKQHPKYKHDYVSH

[2] = molecular target: TP53-binding protein 1 (Homo sapiens) (UniProt Q12888); test: Effect on GST-fused 53BP1 Tudor domain (unknown origin)/biotinylated H4K20Me1 peptide interaction assessed as binding of 53BP1 to H4K20Me1 at 5 uM by pull down assay based western blot analysis
[3] = system: T1, Lethal(3)malignant brain tumor-like protein 1 (Homo sapiens), Q9Y468 [D355N]; conditions: 5 to 25 uM
T1 sequence (whole entry): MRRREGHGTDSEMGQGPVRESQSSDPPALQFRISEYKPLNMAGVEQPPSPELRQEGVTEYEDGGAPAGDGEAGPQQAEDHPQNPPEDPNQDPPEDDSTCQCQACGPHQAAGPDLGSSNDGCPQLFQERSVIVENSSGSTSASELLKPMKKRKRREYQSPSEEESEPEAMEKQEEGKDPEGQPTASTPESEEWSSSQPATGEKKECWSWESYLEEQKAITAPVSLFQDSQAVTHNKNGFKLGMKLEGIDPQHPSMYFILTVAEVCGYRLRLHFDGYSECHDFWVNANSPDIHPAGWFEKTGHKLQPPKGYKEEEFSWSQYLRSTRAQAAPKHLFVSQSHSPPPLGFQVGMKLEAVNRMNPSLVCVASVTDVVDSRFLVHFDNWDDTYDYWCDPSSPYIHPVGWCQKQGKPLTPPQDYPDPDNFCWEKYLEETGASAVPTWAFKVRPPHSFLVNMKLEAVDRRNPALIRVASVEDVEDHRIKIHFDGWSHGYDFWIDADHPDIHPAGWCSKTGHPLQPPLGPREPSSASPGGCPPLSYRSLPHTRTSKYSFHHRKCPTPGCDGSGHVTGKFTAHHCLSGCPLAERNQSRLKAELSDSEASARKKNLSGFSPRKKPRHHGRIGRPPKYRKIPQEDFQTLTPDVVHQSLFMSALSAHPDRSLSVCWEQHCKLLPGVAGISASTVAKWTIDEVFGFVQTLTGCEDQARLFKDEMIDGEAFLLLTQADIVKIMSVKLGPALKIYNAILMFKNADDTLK
Description: Inhibition of GST-fused L3MBTL1 3xMBT-D355N mutant (unknown origin)/biotinylated H4K20Me1 peptide interaction at 5 to 25 uM by pull down assay based western blot analysis

Activity [1] | Activity [2] | SMILES | inhibition [3]
91% | 120% | O=C(c1cccc(Br)c1)N1CCC(N2CCCCC2)CC1 | inactive
106% | 124% | O=C(c1cccc(Br)c1)N1CCC(N2CCCC2)CC1 | inactive
